For orientation: IC50 means the concentration needed to halve the response being measured.

The results in this text go back to US20210330736A1 (UNIVERSITEIT VAN AMSTERDAM, priority 2018, published 2021).

Assay type in all cases: cell-based
Assay [1] has as its system Ser40 phosphorylation of Th in MN9D cells. Kind of assay: Th Ser40 phosphorylation in MN9D cells (western blot, P-Ser40/total Th). On the procedure: FIG. 6. PDE2a is an important effector regulating Ser40 phosphorylation in MN9D cells. MN9D cultures were treated with IBMX or BAY-60-7550 (50 μM), a PDE2A-selective inhibitor. Cells were analyzed on western-blot for phosphorylation of Ser40 , total Th, and actin.
FIG. 7. PDE2a is an important effector regulating Ser40 phosphorylation in MN9D cells. BAY-60-7550 dose-curve and representative examples in MN9D (n=9, red) and HEK cells (n=4, blue) (Mean±SEM). Cells were treated with various concentrations of BAY 60-7750 and analyzed for Th phosphorylation on Ser40 , total Th and actin.
FIG. 10. PDE11 is an important effector regulating Ser40 phosphorylation in MN9D cells. BC 11-38 dose-curve and representative examples in MN9D (n=2) (Mean±SEM). IBMX served as a control and was used at 100 μM. Cell were analyzed for phosphorylation of Th on Ser40 and total Th was used as a loading control to determine phosphorylation specific effects.
24 hours prior to the administration of the different compounds, cells were serum-starved with DMEM medium supplemented with L-glutamine and Pen&Strep. Unless otherwise stated, the concentration of the different reagents is reported in Table 1 and the duration of the treatment was 1 hour.
Cells were harvested in 150 μL of Laemmli sample buffer (2% SDS, 10% glycerol, 60 mM Tris-Cl pH 6.8, 0.01% bromophenol blue, 50 mM freshly added DTT). Wells were duplicated in pairs and pooled into the same tubes to minimize variability. Samples were sonicated at maximum potency during 3 minutes, heated at 95° C. for 5 minutes and spun down briefly before loading. Running gels were 10% polyacrylamide except for the GUCY2C detection, which was optimal in 7% gels (375 mM Tris-Cl pH 8.8, 0.1% APS, 0.1% SDS, 0.04% TEMED). Stacking gels were 5% polyacrylamide (125 mM Tris-Cl pH 6.8, 0.1% APS, 0.1% SDS, 0.04% TEMED).
Up to 35 μL of sample was loaded in each slot and run in the presence of tris-glycine buffer and 0.1% SDS. Running conditions were 100 V during the first 20 minutes, followed by 160 V until the migration front reached the bottom of the gel. The transference was performed at 100 V onto 0.2 μm nitrocellulose membranes, in the presence of tris-glycine buffer and 20% methanol. The blotting duration was 140 minutes except for the detection of GUCY2C, which was transferred during 240 minutes in the presence of 0.1% SDS. Membranes were then submerged in Ponceau S solution to check blotting efficiency (0.1% Ponceau S, 5% acetic acid). After several washings with DEMI water, blots were incubated during 1 hour in the presence of 5% milk powder and TBS-T (154 mM NaCl, 49.5 mM Tris-Cl pH 7.4, 0.1% Tween-20). The incubation with the primary antibodies was performed O/N at 4° C. in TBS-T (consult Table 2 for dilution and species). Membranes were rinsed in TBS-T during 1 hour to remove the excess antibody. The incubation with the secondary antibodies took place during 60 minutes at room temperature (1:10,000 dilution in TBS-T, with the exception of the goat secondary which was diluted 1:20,000). Secondary antibodies were fused to the horseradish peroxidase and raised against the host species of the primary antibody. After additional washings during 1 hour, blots were exposed to an enhanced chemiluminescence solution and the signal was detected using an Odyssey imager (LI-COR). Band densitometry was performed with LI-COR Image Studio Lite. For graph quantifications, ‘Fold Change’ represents the ratio P-Ser40/Total Th. Statistical comparisons between pair of groups correspond to unpaired Student's t-tests, as calculated with GraphPad Prism. Asterisks denote the following p-values: *<0.05, **<0.01, ***<0.001, ****<0.0001.
IBMX is a non-selective PDE inhibitor, therefore we investigated the effect of inhibiting a specific PDE selectively on Ser40 phosphorylation. To study the effect of PDE2A inhibition on Ser40 phosphorylation we treated the dopaminergic cell-line MN9D with Bay BAY-60-7550 and analyzed the effects. […]

The next assay deals with T1, GUCY2C R792S mutant (Homo sapiens, UniProt P25092, R792S).
T1 construct: expressed in transfected cells; host or cells: HEK cells, co-transfected with Th
Kind of assay: Th Ser40 phosphorylation in HEK cells co-transfected with Th and GUCY2C R792S gain-of-function mutant versus wt. The note with it: HEK co-transfected with Th and wt or R792S GUCY2C, guanylin treatment. The procedure:
FIG. 5. […] (A) HEK cultures were treated with guanylin, in the presence or absence of IBMX. […] Unpaired Student's t-test (p-values: ****<0.0001, **<0.01, *<0.05). (B) HEK cells were co-transfected with Th and either the wt GUCY2C or a gain-of-function mutant (R792S). Ser40 phosphorylation was studied following guanylin treatment (G). […] Unpaired Student's t-test (p-values: ***<0.001, **<0.01).
HEK cells were transfected using the calcium-phosphate method. 12-well plates were refreshed with 500 μL of growth medium before transfection. […] The plasmid mixture was taken into a final concentration of 250 mM CaCl2 in a total volume of 110 μL. A complementary tube was filled with 110 μL of HEPES-buffered saline 2X (HEBS 2X: 1.5 mM Na2HPO4, 50 mM HEPES pH 7.05, 280 mM NaCl). The tube with CaCl2 was pipetted drop-wise into the HEBS and mixed gently. After 60 seconds of incubation, 55 µL of the final mixture was added to each well. […]
Up to 35 μL of sample was loaded in each slot and run in the presence of tris-glycine buffer and 0.1% SDS. […] After additional washings during 1 hour, blots were exposed to an enhanced chemiluminescence solution and the signal was detected using an Odyssey imager (LI-COR). […] For graph quantifications, ‘Fold Change’ represents the ratio P-Ser40/Total Th. Statistical comparisons between pair of groups correspond to unpaired Student's t-tests, as calculated with GraphPad Prism. […]

In the next assay the target is GUCY2C (Homo sapiens, UniProt P25092). Kind of assay: GUCY2C ligand analysis in HEK-293 cells transfected with GUCY2C and Th (WES). The note with it: 10 μM, Th Ser40 corrected for total Th, n=3. Also on record: expressed in transfected cells; host or cells: HEK-293 cells transfected with GUCY2C and Th. On the procedure:
Potential GUCY2C ligands were tested in HEK-293 cells transfected with GUCY2C and Th and subsequently treated and analyzed by automated western (WES). Th Ser40 was corrected for total Th. Controls were set to 1. Significance is determined by two-tailed t-test on n=3. * p<0.05, **p<0.01, ***p<0.005, “”p<0.001. A) Guanylin control 10 μM. B) Peptides 1 to 5 in an amount of 10 μM. C) Peptides 6 to 11 in an amount of 10 μM.
We designed novel peptides with different activities with respect to endogenous GUCY2C ligands (Table 3). The peptides were analyzed in Th and GUCY2C transfected HEK-293 cells and subsequently tested ex-vivo in mice striatal slices. […] We synthezised uroguanylin and heat stable toxin as controls for the synthezised peptides and they thus are from a different source than the commercially available uroguanylin and heat stable toxin. […] Possibly the effects of the peptides can differ depending on the area in the striatum which is stimulated.

Sequence of GUCY2C (P25092 24-1073): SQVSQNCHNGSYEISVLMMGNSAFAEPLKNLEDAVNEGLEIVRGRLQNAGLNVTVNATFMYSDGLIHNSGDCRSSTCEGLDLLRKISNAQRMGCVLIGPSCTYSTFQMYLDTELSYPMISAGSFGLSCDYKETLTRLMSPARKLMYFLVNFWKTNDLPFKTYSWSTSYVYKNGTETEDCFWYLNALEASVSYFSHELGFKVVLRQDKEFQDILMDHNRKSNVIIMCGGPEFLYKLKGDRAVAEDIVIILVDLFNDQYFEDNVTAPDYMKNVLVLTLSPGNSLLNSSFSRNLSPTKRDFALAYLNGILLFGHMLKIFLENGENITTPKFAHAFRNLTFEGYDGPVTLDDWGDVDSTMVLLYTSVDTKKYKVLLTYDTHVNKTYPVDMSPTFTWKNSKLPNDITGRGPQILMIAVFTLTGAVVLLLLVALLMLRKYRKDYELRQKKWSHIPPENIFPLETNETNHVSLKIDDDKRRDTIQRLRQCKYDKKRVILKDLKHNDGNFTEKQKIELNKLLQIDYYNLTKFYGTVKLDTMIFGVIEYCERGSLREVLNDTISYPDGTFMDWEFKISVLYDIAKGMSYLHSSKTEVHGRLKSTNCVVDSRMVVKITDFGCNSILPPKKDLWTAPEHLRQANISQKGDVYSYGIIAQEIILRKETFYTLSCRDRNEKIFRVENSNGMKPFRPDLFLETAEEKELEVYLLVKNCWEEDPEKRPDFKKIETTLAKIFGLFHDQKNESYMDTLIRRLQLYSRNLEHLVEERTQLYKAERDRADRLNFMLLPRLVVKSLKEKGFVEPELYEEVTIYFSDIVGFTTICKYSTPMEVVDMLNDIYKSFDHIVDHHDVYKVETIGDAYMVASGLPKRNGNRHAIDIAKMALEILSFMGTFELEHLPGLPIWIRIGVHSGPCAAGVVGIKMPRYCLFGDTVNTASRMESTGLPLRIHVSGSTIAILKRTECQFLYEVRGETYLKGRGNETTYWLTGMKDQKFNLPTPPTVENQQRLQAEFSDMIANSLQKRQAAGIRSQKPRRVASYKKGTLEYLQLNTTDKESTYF
T1 sequence (P25092 24-1073 R792S): as the sequence (P25092 24-1073) above, with R769S counted along it

Take `COc1ccc(Cc2nn3c([C@@H](CCCc4ccccc4)[C@@H](C)O)nc(C)c3c(=O)[nH]2)cc1OC` [BAY 60-7550]: the “increase in the phosphorylation of Ser40” value in assay [1] (50 μM) is reported as “more than 4 fold”. Also, the “performance versus IBMX on Ser40 phosphorylation” value in assay [1] (IBMX 100 μM as control) is recorded as “performed better than IBMX”. For the same compound, the “phosphorylation of Th on Ser40 as compared to total Th (in words)” value in assay [1] (dose-curve) is “clear fold change increase in Ser40 phosphorylation”. For the same compound, the IC50 in assay [1] (n=9, read-out: IC50 in the dopaminergic model (dose-curve of Th Ser40 phosphorylation)) came to 1 µM.
For the compound “guanylin: natural agonistic ligand of GUCY2C, 15 amino acid polypeptide; commercially available rat/mouse guanylin (Chemcruz) (PNTCEICAYAACTGC) [reference compound]”, the “boost in Ser40 phosphorylation with R792S mutant compared to the wt receptor” value with GUCY2C R792S mutant worked out at 1.5 fold. Moreover, the “Ser40 phosphorylation in HEK-293 cells (significance, in words)” value with GUCY2C is “modest, but significant increase”.
